Read-outs that look alike come from different tables or passages of the source.
Key:
5-HT2A (h) [1] = biological target: T1, 5-HT2A (h) (Homo sapiens, UniProt P28223); assay: 5-HT2A (h) agonist radioligand [125I](±)DOI binding
T1 construct: expressed in transfected cells; host or cells: HEK-293 cells

5-HT2B (h) [2] = biological target: T2, 5-HT2B (h) (Homo sapiens, UniProt P41595); assay: 5-HT2B (h) agonist radioligand [125I](±)DOI binding
T2 construct: expressed in transfected cells; host or cells: CHO cells
Procedure: (§1) Samples were then analyzed as described above.

5-HT2C (h) [3] = biological target: T3, 5-HT2C (h) (Homo sapiens, UniProt P28335); assay: 5-HT2C (h) agonist radioligand [125I](±)DOI binding
T3 construct: expressed in transfected cells; host or cells: HEK-293 cells
T3 sequence (P28335 33-458): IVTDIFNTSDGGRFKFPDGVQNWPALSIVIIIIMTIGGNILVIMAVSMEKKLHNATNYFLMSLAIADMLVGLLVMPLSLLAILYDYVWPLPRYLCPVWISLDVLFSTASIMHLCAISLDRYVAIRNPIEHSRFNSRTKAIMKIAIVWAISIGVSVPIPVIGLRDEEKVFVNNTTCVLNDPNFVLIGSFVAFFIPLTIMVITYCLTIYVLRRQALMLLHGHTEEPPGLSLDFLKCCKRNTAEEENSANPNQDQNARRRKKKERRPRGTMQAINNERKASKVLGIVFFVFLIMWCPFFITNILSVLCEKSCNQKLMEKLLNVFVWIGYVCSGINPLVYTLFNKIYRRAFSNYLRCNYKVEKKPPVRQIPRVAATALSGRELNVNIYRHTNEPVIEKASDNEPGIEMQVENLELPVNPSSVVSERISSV
Procedure: as §1

[4] = biological target: T4, norepinephrine transporter (h) (Homo sapiens, UniProt P23975); assay: norepinephrine transporter (h) binding, [3H]nisoxetine; conditions: at 10 μM; table calls these values “No Binding”
T4 construct: expressed in transfected cells; host or cells: CHO cells

dopamine transporter (h) = biological target: T5, dopamine transporter (h) (Homo sapiens, UniProt Q01959); assay: dopamine transporter (h) binding, [3H]BTCP
T5 construct: expressed in transfected cells; host or cells: CHO cells

5-HT transporter (h) [5] = biological target: T6, 5-HT transporter (h) (Homo sapiens, UniProt P31645); assay: 5-HT transporter (h) binding, [3H]imipramine
T6 construct: expressed in transfected cells; host or cells: CHO cells

5-HT2A (h) [6] = biological target: T1, 5-HT2A (h); assay: 5-HT2A (h) agonist effect, IP1 HTRF functional assay; assay type: cell-based
5-HT2B (h) [7] = biological target: T2, 5-HT2B (h); assay: 5-HT2B (h) agonist effect, IP1 HTRF functional assay; assay type: cell-based
5-HT2C (h) [8] = biological target: T3, 5-HT2C (h); assay: 5-HT2C (h) agonist effect, IP1 HTRF functional assay; assay type: cell-based
[9] = biological target: T7, Norepinephrine transporter (Homo sapiens, UniProt P23975); assay: Norepinephrine transporter uptake (h); assay type: cell-based
Dopamine transporter [10] = biological target: T8, Dopamine transporter (Homo sapiens, UniProt Q01959); assay: Dopamine transporter uptake (h); assay type: cell-based
Serotonin transporter = biological target: T9, Serotonin transporter (Rattus norvegicus, UniProt P31652); assay: Serotonin transporter uptake, rat brain synaptosomes; assay type: biochemical
T9 construct: from tissue

[11] = biological target: T7, Norepinephrine transporter; conditions: racemic, cited from earlier work
Dopamine transporter [12] = biological target: T8, Dopamine transporter; conditions: variable numbers in the literature, racemic, cited from earlier work
5-HT2A (h) [13] = biological target: T1, 5-HT2A (h); conditions: read-out: Binding 5-HT2A Ki; antagonist radioligand; literature, racemic; cited from earlier work
[14] = biological target: T4, norepinephrine transporter (h); conditions: read-out: Binding NET Ki; literature, racemic; cited from earlier work
5-HT transporter (h) [15] = biological target: T6, 5-HT transporter (h); conditions: read-out: Binding SERT Ki; literature, racemic; cited from earlier work
5-HT2A (h) [16] = biological target: T1, 5-HT2A (h); conditions: literature, single enantiomers, cited from earlier work; for EC50: read-out: Function 5-HT2A EC50
5-HT2C (h) [17] = biological target: T3, 5-HT2C (h); conditions: literature, single enantiomers; cited from earlier work
5-HT2A receptor = biological target: T10, 5-HT2A receptor (Homo sapiens, UniProt P28223); conditions: literature value (Rickli et al. 2016); cited from earlier work
T10 construct: host or cells: HEK293 (ATCC CRL-1573), transient, membranes

[18] = Hill coefficient, reference compound result
[19] = agonist radioligand [125I](±)DOI, reference compound result
[20] = read-out: Function DAT IC50, lower end of literature range
[21] = read-out: Function DAT IC50, upper end of literature range

T6 sequence (P31645 whole entry): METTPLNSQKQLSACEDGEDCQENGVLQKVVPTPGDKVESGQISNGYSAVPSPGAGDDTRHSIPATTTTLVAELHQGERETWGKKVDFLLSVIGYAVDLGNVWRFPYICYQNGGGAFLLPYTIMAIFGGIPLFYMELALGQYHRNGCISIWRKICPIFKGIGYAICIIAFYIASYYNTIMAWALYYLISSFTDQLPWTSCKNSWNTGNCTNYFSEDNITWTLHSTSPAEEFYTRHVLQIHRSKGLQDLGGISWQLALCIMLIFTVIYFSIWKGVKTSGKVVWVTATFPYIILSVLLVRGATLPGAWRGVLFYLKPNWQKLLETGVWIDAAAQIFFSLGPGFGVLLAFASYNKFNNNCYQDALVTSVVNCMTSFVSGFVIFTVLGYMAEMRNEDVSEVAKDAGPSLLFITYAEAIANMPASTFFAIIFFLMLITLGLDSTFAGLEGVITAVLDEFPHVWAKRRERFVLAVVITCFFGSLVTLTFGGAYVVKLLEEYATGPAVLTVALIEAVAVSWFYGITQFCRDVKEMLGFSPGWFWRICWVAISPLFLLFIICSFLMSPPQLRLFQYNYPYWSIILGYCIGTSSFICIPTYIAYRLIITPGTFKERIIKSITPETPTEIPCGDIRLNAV
T1 sequence (P28223 whole entry): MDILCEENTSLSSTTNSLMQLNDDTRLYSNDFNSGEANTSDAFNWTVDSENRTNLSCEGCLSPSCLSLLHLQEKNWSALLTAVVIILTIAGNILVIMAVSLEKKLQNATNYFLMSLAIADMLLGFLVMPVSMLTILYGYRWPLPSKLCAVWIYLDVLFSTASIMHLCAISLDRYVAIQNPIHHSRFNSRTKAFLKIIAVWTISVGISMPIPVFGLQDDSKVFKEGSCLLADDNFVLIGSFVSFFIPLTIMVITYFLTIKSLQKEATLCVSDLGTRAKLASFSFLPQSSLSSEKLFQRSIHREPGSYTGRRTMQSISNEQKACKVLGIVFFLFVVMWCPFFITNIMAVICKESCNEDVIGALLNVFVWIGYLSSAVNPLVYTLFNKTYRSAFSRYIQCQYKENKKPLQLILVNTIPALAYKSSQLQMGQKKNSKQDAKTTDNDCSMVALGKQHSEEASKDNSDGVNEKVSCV
T9 sequence (P31652 whole entry): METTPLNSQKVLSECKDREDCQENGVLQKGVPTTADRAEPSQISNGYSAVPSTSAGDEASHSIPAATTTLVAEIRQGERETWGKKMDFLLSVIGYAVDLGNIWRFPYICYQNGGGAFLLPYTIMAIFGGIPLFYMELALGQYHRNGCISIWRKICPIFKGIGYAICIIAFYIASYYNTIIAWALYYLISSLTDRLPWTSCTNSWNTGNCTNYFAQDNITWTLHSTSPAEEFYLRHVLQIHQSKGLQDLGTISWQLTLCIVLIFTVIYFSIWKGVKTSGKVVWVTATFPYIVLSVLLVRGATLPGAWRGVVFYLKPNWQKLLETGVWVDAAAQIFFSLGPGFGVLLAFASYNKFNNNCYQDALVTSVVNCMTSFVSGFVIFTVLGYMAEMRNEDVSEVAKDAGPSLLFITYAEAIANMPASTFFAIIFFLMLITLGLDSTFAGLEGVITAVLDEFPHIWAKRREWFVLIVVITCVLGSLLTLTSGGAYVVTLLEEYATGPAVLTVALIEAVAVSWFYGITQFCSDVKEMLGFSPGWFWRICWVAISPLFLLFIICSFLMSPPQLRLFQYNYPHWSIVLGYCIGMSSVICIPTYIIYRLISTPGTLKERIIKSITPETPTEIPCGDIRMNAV
T2 sequence (P41595 whole entry): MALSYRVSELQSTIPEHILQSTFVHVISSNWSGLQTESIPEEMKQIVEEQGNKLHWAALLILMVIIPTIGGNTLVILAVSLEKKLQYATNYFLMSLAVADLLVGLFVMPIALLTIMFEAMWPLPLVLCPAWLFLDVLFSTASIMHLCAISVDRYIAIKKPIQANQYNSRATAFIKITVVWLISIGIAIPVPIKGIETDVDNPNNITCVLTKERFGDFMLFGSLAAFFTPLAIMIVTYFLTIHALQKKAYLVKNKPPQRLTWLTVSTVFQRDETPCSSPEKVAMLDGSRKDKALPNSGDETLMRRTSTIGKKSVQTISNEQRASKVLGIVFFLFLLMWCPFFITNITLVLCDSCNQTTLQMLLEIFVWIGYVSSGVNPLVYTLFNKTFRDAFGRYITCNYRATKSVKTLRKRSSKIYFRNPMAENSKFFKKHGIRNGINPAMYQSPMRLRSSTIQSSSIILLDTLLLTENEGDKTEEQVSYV
T8 sequence (Q01959 whole entry): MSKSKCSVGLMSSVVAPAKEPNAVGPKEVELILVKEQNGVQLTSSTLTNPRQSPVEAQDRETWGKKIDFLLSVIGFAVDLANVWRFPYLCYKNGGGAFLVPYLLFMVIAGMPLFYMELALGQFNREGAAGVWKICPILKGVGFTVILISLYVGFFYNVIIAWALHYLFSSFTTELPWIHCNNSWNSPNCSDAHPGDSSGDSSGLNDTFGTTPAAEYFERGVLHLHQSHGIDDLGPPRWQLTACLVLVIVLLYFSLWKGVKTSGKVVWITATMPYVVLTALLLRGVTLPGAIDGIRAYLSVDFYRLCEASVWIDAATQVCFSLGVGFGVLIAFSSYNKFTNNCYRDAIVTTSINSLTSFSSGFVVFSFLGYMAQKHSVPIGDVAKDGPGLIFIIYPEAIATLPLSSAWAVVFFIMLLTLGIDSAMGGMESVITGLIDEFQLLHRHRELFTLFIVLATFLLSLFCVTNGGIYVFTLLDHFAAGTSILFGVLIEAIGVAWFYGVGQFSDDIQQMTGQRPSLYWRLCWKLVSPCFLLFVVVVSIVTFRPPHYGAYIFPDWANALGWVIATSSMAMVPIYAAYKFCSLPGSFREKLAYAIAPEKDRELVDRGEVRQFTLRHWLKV
T7 sequence (P23975 whole entry): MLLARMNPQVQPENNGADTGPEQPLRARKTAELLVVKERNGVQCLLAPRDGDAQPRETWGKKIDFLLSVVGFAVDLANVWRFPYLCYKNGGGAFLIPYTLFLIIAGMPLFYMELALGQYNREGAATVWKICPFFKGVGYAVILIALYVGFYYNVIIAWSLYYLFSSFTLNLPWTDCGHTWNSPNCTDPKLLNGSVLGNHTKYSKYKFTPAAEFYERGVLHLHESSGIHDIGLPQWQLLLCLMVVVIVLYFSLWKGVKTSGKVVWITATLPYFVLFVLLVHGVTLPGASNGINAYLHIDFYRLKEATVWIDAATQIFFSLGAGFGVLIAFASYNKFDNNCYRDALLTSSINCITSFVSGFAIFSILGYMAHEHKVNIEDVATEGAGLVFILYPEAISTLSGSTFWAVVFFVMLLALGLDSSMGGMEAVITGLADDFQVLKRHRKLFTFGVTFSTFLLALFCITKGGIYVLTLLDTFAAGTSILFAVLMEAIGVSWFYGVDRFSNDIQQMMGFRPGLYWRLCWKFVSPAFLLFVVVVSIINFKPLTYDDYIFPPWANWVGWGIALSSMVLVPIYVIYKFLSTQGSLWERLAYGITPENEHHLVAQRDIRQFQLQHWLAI
T5 sequence (Q01959 whole entry): as the sequence (Q01959 whole entry) above
T4 sequence (P23975 whole entry): as the sequence (P23975 whole entry) above
T10 sequence (P28223 whole entry): as the sequence (P28223 whole entry) above

COc1cc(CC(C)N)c(OC)cc1I (racemic) [(±)DOI] gave a nH (5-HT2A (h) [1]; [18]) of 1.0, a nH (5-HT2B (h) [2]; [18]) of 1.1 and an IC50 (5-HT2B (h) [2]; [19]) of 3.8 nM. It also gave a Ki (5-HT2B (h) [2]; [19]) of 1.9 nM, a nH (5-HT2C (h) [3]; [18]) of 0.9 and an IC50 (5-HT2C (h) [3]; [19]) of 0.37 nM. It also gave a Ki (5-HT2C (h) [3]; [19]) of 0.33 nM.
With CC(N)Cc1ccc2c(c1)OCS2 (racemic) [II-16 (racemic)] the “Binding 5-HT2A (agonist radioligand), % competition” value (5-HT2A (h) [1]; at 10 μM) was 94.4% competition, the “Binding 5-HT2B (agonist radioligand), % competition” value (5-HT2B (h) [2]; at 10 μM) was 100.1% competition and the “Binding 5-HT2C (agonist radioligand), % competition” value (5-HT2C (h) [3]; at 10 μM) was 98.4% competition. The “Binding NET (antagonist radioligand), % competition” value [4] was 25.2% competition, the “Binding DAT (antagonist radioligand), % competition” value (dopamine transporter (h); at 10 μM, table calls these values “No Binding”) was 15.7% competition and the “Binding SERT (antagonist radioligand), % competition” value (5-HT transporter (h) [5]; at 10 μM) was 68.1% competition. For the same molecule, the EC50 (5-HT2A (h) [6]; IP-1, estimated from four concentrations, read-out: Function 5-HT2A Estimated EC50) was 2500 nM, the Emax at 10 µM (5-HT2A (h) [6]; at 10 μM, relative to 5-HT, read-out: Function 5-HT2A EMAX) was 89.8% and the “Function 5-HT2A (IP-1, efficacy relative to 5-HT), agonist type” value (5-HT2A (h) [6]; tested at 1, 3, 10, 100 μM) was “Nearly full agonist -”. The EC50 (5-HT2B (h) [7]; Gq-IP1, estimated from four concentrations, read-out: Function 5-HT2B Estimated EC50) was less than 500 nM, the Emax at 1 µM (5-HT2B (h) [7]; at 1 μM, relative to 5-HT, read-out: Function 5-HT2B EMAX) was 100% and the “Function 5-HT2B (Gq-IP1, efficacy relative to 5-HT), agonist type” value (5-HT2B (h) [7]; tested at 1, 3, 10, 100 μM) was “Full agonist -”. For the same molecule, the EC50 (5-HT2C (h) [8]; Gq-IP1, estimated from four concentrations, read-out: Function 5-HT2C Estimated EC50) was less than 800 nM, the Emax at 10 µM (5-HT2C (h) [8]; at 10 μM, relative to 5-HT, read-out: Function 5-HT2C EMAX) was 99.3% and the “Function 5-HT2C (Gq-IP1, efficacy relative to 5-HT), agonist type” value (5-HT2C (h) [8]; tested at 1, 3, 10, 100 μM) was “Full agonist -”. The inhibition at 10 µM ([9]; at 10 μM, read-out: Function NET, inhibition of NET) was 93.5%, the IC50 ([9]; blocking reuptake of NE, read-out: Function NET Estimated IC50) was less than 1000 nM and the “Function NET (blocking reuptake of NE), efficacy in words” value ([9]; tested at 1, 10, 100 μM) was “Near full efficacy,”. The inhibition at 100 µM (Dopamine transporter [10]; at 100 μM, read-out: Function DAT, inhibition of DAT) was 99.1%, the IC50 (Dopamine transporter [10]; blocking reuptake of DA, read-out: Function DAT Estimated IC50) was roughly 1000 nM and the “Function DAT (blocking reuptake of DA), efficacy in words” value (Dopamine transporter [10]; tested at 1, 10, 100 μM) was “Full efficacy,”. The inhibition at up to 100 µM (Serotonin transporter; across dose range tested (1, 3, 10, 100 μM), read-out: Function SERT, inhibition of SERT) was 95.3 to 106%, the IC50 (Serotonin transporter; blocking reuptake of 5-HT, read-out: Function SERT Estimated IC50) was less than 200 nM and the “Function SERT (blocking reuptake of 5-HT), efficacy in words” value (Serotonin transporter; tested at 1, 3, 10, 100 μM) was “Full efficacy,”.
With c1ccc2sc(C3(N4CCCCC4)CCCCC3)cc2c1 [BTCP, reference compound] the nH (dopamine transporter (h); [18]) was 1.0.
In the case of CC(N)Cc1ccc2c(c1)OCO2 (centres unmarked) [MDA, 3,4-methylenedioxyamphetamine], the IC50 ([11]; read-out: Function NET IC50, literature) is given as roughly 300 nM, the IC50 (Dopamine transporter [12]; [20]) is given as no less than 890 nM and the IC50 (Dopamine transporter [12]; [21]) is given as no more than 21000 nM.
In the case of CNC(C)Cc1ccc2c(c1)OCO2 (centres unmarked) [MDMA, 3,4-methylenedioxymethamphetamine], the Ki (5-HT2A (h) [13]) is given as 7800 nM, the Ki [14] is given as greater than 10000 nM and the Ki (5-HT transporter (h) [15]) is given as greater than 10000 nM. The IC50 ([11]; read-out: Function NET IC50, lower end of literature range, variable numbers in the literature) was no less than 108 nM, the IC50 ([11]; read-out: Function NET IC50, upper end of literature range, variable numbers in the literature) was no more than 6600 nM and the IC50 (Dopamine transporter [12]; [20]) was no less than 410 nM. For the same molecule, the IC50 (Dopamine transporter [12]; [21]) was no more than 17000 nM.
For CN[C@H](C)Cc1ccc2c(c1)OCO2 [R-MDMA], the “Function 5-HT2A EMAX” value (5-HT2A (h) [16]) is given as “EMAX = 21%”, the EC50 (5-HT2A (h) [16]) is given as 3100 nM and the “Function 5-HT2C EMAX” value (5-HT2C (h) [17]) is given as “EMAX = 27%”.
In the case of COc1cc(CCN)cc(OC)c1OC [Reference Compound 1, 3,4,5-trimethoxyphenethylamine], the Ki (5-HT2A receptor) is given as 6300 nM.
For CN[C@@H](C)Cc1ccc2c(c1)OCO2 [S-MDMA], the “Function 5-HT2A EMAX” value (5-HT2A (h) [16]) is listed as “EMAX = 9%”, the EC50 (5-HT2A (h) [16]) is listed as 10300 nM and the “Function 5-HT2C EMAX” value (5-HT2C (h) [17]) is listed as “EMAX = 53%”.
CN(C)CCCN1c2ccccc2CCc2ccccc21 [imipramine, reference compound] gave a nH (5-HT transporter (h) [5]; [18]) of 1.2.
